In paper PMC10149367, “The ferroptosis inducing compounds RSL3 and ML162 are not direct inhibitors of GPX4 but of TXNRD1” (Redox Biology, 2023):

Legend:
[1] = target: T1, glutathione reductase (GR) (Homo sapiens, UniProt P00390); assay: GR counter assay; assay type: biochemical; conditions: Extended Data Fig. 2A right panel
T1 construct: made in house
T1 sequence (P00390 44-522): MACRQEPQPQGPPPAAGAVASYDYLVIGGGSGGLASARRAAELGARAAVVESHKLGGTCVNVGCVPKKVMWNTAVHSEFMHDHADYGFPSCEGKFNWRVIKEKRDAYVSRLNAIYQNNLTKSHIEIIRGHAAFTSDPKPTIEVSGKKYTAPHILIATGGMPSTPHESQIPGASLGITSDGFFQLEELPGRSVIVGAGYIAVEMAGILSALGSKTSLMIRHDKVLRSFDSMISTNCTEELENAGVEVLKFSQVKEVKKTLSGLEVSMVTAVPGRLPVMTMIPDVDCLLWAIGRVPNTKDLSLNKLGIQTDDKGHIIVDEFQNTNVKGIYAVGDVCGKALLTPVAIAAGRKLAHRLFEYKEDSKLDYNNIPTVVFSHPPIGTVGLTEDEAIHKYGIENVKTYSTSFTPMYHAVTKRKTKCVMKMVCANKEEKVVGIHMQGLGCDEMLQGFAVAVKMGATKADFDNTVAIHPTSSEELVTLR
Description: Recombinant human proteins—Recombinant human selenoprotein GPX and TXNRD isoenzymes as well as recombinant human GR were cloned, expressed, and purified as described previously [[26], [27], [28]].
GR counter assay was run by incubating 198 μL of GR and BSA in TES buffer with 2 μL compound for 30 min before dispensing 50 μL GSSG and NADPH in TES for final concentrations of 100 nM GR, 1 mM GSSG, 0.4 mM NADPH, 0.01% BSA. Absorbance at 340 was measured as above.

A549 cells = assay: Cytotoxicity assay, A549 cells; assay type: cell-based, human; conditions: for Cell viability compared to DMSO controls: 5 μM
Description: Cell culture—H1975 and A549 cells were cultured in RPMI-1640 medium (HyClone) with Earle's salts supplemented and penicillin/streptomycin (100 μg/ml), while HT1080 cells were cultured in MEM medium for Fig. 2 experiments. For all other cellular experiments, A549 cells were cultured in DMEM 4.5 g/L glucose medium (Gibco), and H1975 cells in RPMI-1640 ATCC Modification (Gibco). Cell cultures were maintained at 37 °C in 5% CO2 in a medium containing 10% fetal bovine serum (FBS) (GE Healthcare, A15-102 for Fig. 2 experiments and Sigma, F7524 for all others). Experiments were performed with or without supplementation with 100 nM sodium selenite as described.
Cytotoxicity assays— Cells were seeded in a 96-well plate at the density of 3 × 10^3 per well and allowed to adhere overnight. After which, cells were treated with various concentrations of compound for the indicated times, whereupon cell viability was determined using Cell Quanti-Blue™ Cell Viability Assay Kits (Nordic Diagnostica, CQBL-10K). Briefly, QUANTI-Blue Reagent (10 μL) was added to each well, incubated at 37 °C in 5% CO2 for 3 h, and then the plates were measured at 540nm/600 nm (Ex/Em) using the Tecan Microplate Reader (Morrisville NC, USA).

[2] = A549, 24 h, no selenium supplementation
[3] = A549 in absence of selenium supplementation, 24 h

COC(=O)c1ccc([C@@H]2c3[nH]c4ccccc4c3C[C@@H](C(=O)OC)N2C(=O)CCl)cc1 [RSL3, (1S,3R)RSL3]
Inhibition of GR [1]: did not inhibit GPX1 or GR | IC50 (A549 cells; 24 h, media not supplemented with selenium): ~500 nM | Suppression of cell death by MitoTEMPO (A549 cells; [2]): but not by the mitochondrial antioxidant MitoTEMPO | Suppression of cell death by addition of ferrostatin-1 (A549 cells; [2]): at least 20 fold | Cell viability compared to DMSO controls (A549 cells; A549, non-selenium supplemented, 24 h): 10% | Cell viability compared to DMSO controls (A549 cells; A549, supplemented with 100 nM sodium selenite, 24 h): approximately 78% | Protection by caspase inhibitor z-VAD-fmk (A549 cells; [3]): did not protect these cells from RSL3 | Protection by necrostatin (A549 cells; [3]): partially protected by nectrostatin | Block of cell death by antioxidants and iron chelators (A549 cells; A549 without selenium supplementation, 24 h): blocked by ferrostatin, NDGA (another strong antioxidant), or the iron chelators DFO and DPD50
